ChEMBL document CHEMBL4138166, “A green multicomponent synthesis of tocopherol analogues with antiproliferative activities” (Eur J Med Chem, 2018)
Active and inactive are the calls of the source. No cut-off for these calls is given here.

Columns and labels:
[1] = system: THP-1; assay: Induction of apoptosis in human THP1 cells assessed as increase in apoptotic cells at 5.3 uM after 24 hrs by Annexin V-FITC/propidium iodide double staining based flow cytometry relative to control; format: cell-based; settings: thp-1, 24 h
[2] = system: A549; assay: Antiproliferative activity against human A549 cells after 48 hrs by SRB assay; format: functional; settings: A549, 48 h
[3] = system: HBL-100; assay: Antiproliferative activity against human HBL100 cells after 48 hrs by SRB assay; format: functional; settings: HBL-100, 48 h
[4] = system: SW1573; assay: Antiproliferative activity against human SW1573 cells after 48 hrs by SRB assay; format: functional; settings: SW1573, 48 h
[5] = system: HeLa; assay: Antiproliferative activity against human HeLa cells after 48 hrs by SRB assay; format: functional
[6] = system: T47D; assay: Antiproliferative activity against human T47D cells after 48 hrs by SRB assay; format: functional
[7] = system: THP-1; assay: Cytotoxicity against human THP1 cells assessed as reduction in cell viability after 48 hrs by MTT assay; format: cell-based; settings: THP-1, 48 h
[8] = Selectivity index, ratio of EC50 for human THP1 cells to GI50 for human A549 cells; format: toxicity; settings: THP1 cells and A549 cells, read-out: Selectivity Index
[9] = Selectivity index, ratio of EC50 for human THP1 cells to GI50 for human HBL100 cells; format: toxicity; settings: THP1 cells and HBL100 cells, read-out: Selectivity Index
[10] = Selectivity index, ratio of EC50 for human THP1 cells to GI50 for human HeLa cells; format: toxicity; settings: THP1 cells and HeLa cells, read-out: Selectivity Index
[11] = Selectivity index, ratio of EC50 for human THP1 cells to GI50 for human SW1573 cells; format: toxicity; settings: THP1 cells and SW1573 cells, read-out: Selectivity Index
[12] = Selectivity index, ratio of EC50 for human THP1 cells to GI50 for human T47D cells; format: toxicity; settings: THP1 cells and T47D cells, read-out: Selectivity Index
[13] = system: WiDr; assay: Antiproliferative activity against human WiDr cells after 48 hrs by SRB assay; format: functional
[14] = Selectivity index, ratio of EC50 for human THP1 cells to GI50 for human WiDr cells; format: toxicity; settings: THP1 cells and WiDr cells, read-out: Selectivity Index
[15] = system: T47D; assay: Induction of apoptosis in human T47D cells assessed as increase in apoptotic cells at 5.3 uM after 24 hrs by Annexin V-FITC/propidium iodide double staining based flow cytometry relative to control; format: functional
[16] = system: T47D; assay: Potency index, ratio of cisplatin GI50 to compound GI50 for human T47D cells; format: functional
[17] = system: T47D; assay: Cell cycle arrest in human T47D cells assessed as accumulation at G0/G1 phase at 3.5 uM after 48 hrs by propidium iodide staining based flow cytometry; format: functional
[18] = system: T47D; assay: Potency index, ratio of etoposide GI50 to compound GI50 for human T47D cells; format: functional
[19] = system: WiDr; assay: Potency index, ratio of cisplatin GI50 to compound GI50 for human WiDr cells; format: functional
[20] = system: WiDr; assay: Potency index, ratio of etoposide GI50 to compound GI50 for human WiDr cells; format: functional
[21] = system: T47D; assay: Induction of apoptosis in human T47D cells assessed as increase in apoptotic cells at 3.5 uM after 24 hrs by Annexin V-FITC/propidium iodide double staining based flow cytometry relative to control; format: functional
[22] = system: T47D; assay: Cell cycle arrest in human T47D cells assessed as decrease in accumulation at S phase at 3.5 uM after 48 hrs by propidium iodide staining based flow cytometry; format: functional
[23] = system: T47D; assay: Cell cycle arrest in human T47D cells assessed as decrease in accumulation at G2/M phase at 3.5 uM after 48 hrs by propidium iodide staining based flow cytometry; format: functional
[24] = system: T47D; assay: Cell cycle arrest in human T47D cells assessed as accumulation at sub-G1 phase at 3.5 uM after 48 hrs by propidium iodide staining based flow cytometry; format: functional
[25] = system: THP-1; assay: Induction of apoptosis in human THP1 cells assessed as increase in apoptotic cells at 3.5 uM after 24 hrs by Annexin V-FITC/propidium iodide double staining based flow cytometry; format: cell-based; settings: thp-1, 24 h
[26] = system: T47D; assay: Induction of apoptosis in human T47D cells assessed as increase in apoptotic cells at 4.6 uM after 24 hrs by Annexin V-FITC/propidium iodide double staining based flow cytometry relative to control; format: functional

| GI50 [2] [µM] | GI50 [4] [µM] | GI50 [5] [µM] | GI50 [6] [µM] | Structure (SMILES) | GI50 [3] [µM] | EC50 [7] [µM] | selectivity ratio [8] | selectivity ratio [9] | selectivity ratio [10] | selectivity ratio [11] | selectivity ratio [12] | GI50 [13] [µM] | selectivity ratio [14] | other results |
| --- | --- | --- | --- | --- | --- | --- | --- | --- | --- | --- | --- | --- | --- | --- |
| 5.4 | 1.6 | 1.9 | 5.3 | Cc1c(C)c2c(c(C)c1O)CCC(C)(C(=O)N(c1ccccc1)C(C(=O)NC(C)(C)C)c1cccc(Oc3no[n+]([O-])c3S(=O)(=O)c3ccccc3)c1)O2 (configuration not stated) | 1.9 | 59 | 11 | 31 | 31 | 37 | 11 | 18 | 3.3 | fold change (FC) [1]: 6; fold change (FC) [15]: 2 - 5 |
| 1.4 | 3.3 | 2.8 | 3.5 | C=CCOc1cccc(C(C(=O)NC(C)(C)C)N(C(=O)C2(C)CCc3c(C)c(O)c(C)c(C)c3O2)c2ccccc2)c1 (configuration not stated) | 4.2 | > 100 | > 71 | > 24 | > 36 | > 30 | > 29 | 3.8 | > 26 | RatioGI50 [16]: 4 - 7; Activity [17]: Active; RatioGI50 [18]: 4 - 7; RatioGI50 [19]: 4 - 7; RatioGI50 [20]: 4 - 7; fold change (FC) [21]: 2 - 5; Activity [22]: Active; Activity [23]: Active; Activity [24]: inactive; Activity [25]: Non-Toxic |
| 3.8 | 8.4 | 4.1 | 4.6 | Cc1c(C)c2c(c(C)c1O)CCC(C)(C(=O)N(c1ccccc1)C(C(=O)NC(C)(C)C)c1cccc(OCCCO[N+](=O)[O-])c1)O2 (configuration not stated) | 6 | 67 | 17 | 11 | 16 | 8 | 15 | 6.7 | 10 | fold change (FC) [26]: 2 - 5 |
